Data: PMC4280898, “Diazido Mixed-Amine Platinum(IV) Anticancer Complexes Activatable by Visible-Light Form Novel DNA Adducts” (Chemistry (Weinheim an Der Bergstrasse, Germany), 2013)
Like-named read-outs stand apart in the source and are kept apart here.

What was measured:
A2780 cells [1] = conditions: cited from earlier work
A2780cis cells [2] = conditions: cited from earlier work; for Resistance factor: A2780cis vs A2780
A2780cis cells [3] = experiment: SRB proliferation assay for non-light-sensitive complexes, A2780cis; assay type: cell-based, human
Procedure: (§1) Cytotoxicity of platinum(II) precursors: To investigate the relationship between the Pt^IV diazidodihydroxido complexes and their Pt^II dichlorido analogues trans-[PtCl2(Am1)(Am2)] (where Am=amine), the cytotoxicities of complexes trans-[PtCl2(MA)(Py)] (5) and trans-[PtCl2(MA)(Tz)] (6) towards A2780 and its cisplatin resistant sub-line A2780cis were determined. The toxicity was not photoinduced, as the complexes are not photoactive. Complexes 5 and 6 are highly cytotoxic towards A2780 and A2780cis cells compared to the reported trans-Pt^II compounds.[18]–[22] Complex 5 is about three-times more cytotoxic than complex 6 towards A2780 cells. […]
(§2) Cell Culture and Proliferation Assay for Non-light-sensitive Complexes
(§3) The A2780 ovarian cell line was obtained from the ECACC (European Collection of Animal Cell Culture, Salisbury, United Kingdom). The cells were maintained in RPMI 1640 media, which was supplemented with 10% foetal calf serum, 1% L-glutamine, and 1% penicillin/streptomycin. All cells were grown at 310 K in an humidified atmosphere containing 5% CO2. Stock solutions of the Pt complexes were freshly prepared in DMSO to assist dissolution and then diluted into saline and medium (maximum final concentration of DMSO 1% and saline 6%). After plating 5000 A2780 cells per well on day 1, Pt complexes were added to the cancer cells on day 3 at concentrations ranging from 0.01 to 100 µM, depending on the preliminary activity data obtained in screening assays. Cells were exposed to the complexes for 24 h, washed with PBS, supplied with fresh medium, and allowed to grow for three doubling times (72 h), and then the protein content (proportional to cell survival) was measured using the sulforhodamine B (SRB) assay.[7] The standard errors are based on two independent experiments of three replicates each.[8]

[4] = parameters: method as in earlier work; conditions: 310 K; cited from earlier work
HMGB1 protein [5] = biological target: T1, HMGB1 protein (Homo sapiens, UniProt P09429); experiment: HMGB1 recognition of platinated 50 bp duplex, gel mobility shift assay; assay type: binding; conditions: 50 bp duplex modified in the dark
T1 sequence (P09429 1-215): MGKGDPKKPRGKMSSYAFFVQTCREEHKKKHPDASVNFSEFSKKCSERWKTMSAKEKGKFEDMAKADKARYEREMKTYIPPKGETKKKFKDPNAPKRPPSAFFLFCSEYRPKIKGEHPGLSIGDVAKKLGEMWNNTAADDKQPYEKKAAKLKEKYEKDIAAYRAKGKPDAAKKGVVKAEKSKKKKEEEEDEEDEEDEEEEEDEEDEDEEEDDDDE
Excerpt: HMGB1 protein recognition: The interactions of high mobility group protein B1 (HMGB1) with a 50 bp duplex DNA adducts formed by 1 or 2 under irradiation conditions and 5 or 6 in the dark were investigated using a gel mobility shift assay.
Figure 13 Recognition by HMGB1 protein of platinated DNA. Affinity of full-length HMGB1 to non-modified (control) DNA (lanes 1 and 2) or DNA modified by cisplatin (7) in the dark (lanes 3 and 4), 5 in the dark (lanes 5 and 6), 6 in the dark (lanes 7 and 8), photoactivated 1 (420 nm light, lanes 9 and 10) or photoactivated 2 (420 nm light, lanes 11 and 12). Lanes 1, 3, 5, 7, 9, 11, no protein added; lanes 2, 4, 6, 8, 10, 12, 700 ng HMGB1 added.

calf thymus DNA [6] = conditions: in the dark; cited from earlier work
A2780 cells [7] = experiment: Constant challenge proliferation (MTT) assay, A2780; assay type: cell-based, human; conditions: conventional constant challenge proliferation assay
Excerpt: (§4) It should be noted that the phototoxicity assay is not a proliferation assay.

A2780 cells [8] = experiment: SRB proliferation assay for non-light-sensitive complexes, A2780; assay type: cell-based, human; conditions: ambient light, 24 h exposure, 72 h recovery
Procedure: as §1, §2, §3

DNA = test system: DNA; parameters: method as in PMID 1827334; conditions: ref 3a; cited from earlier work
[9] = test system: 212 bp NdeI–HpaI fragment of pSP73KB DNA; conditions: in the dark, cited from earlier work
pSP73KB plasmid DNA = conditions: in the dark; ref 32b; cited from earlier work
calf thymus DNA [10] = conditions: in the dark; ref 32b; cited from earlier work
A2780cis cells [11] = experiment: Constant challenge proliferation (MTT) assay, A2780cis; assay type: cell-based, human; conditions: conventional constant challenge proliferation assay
Excerpt: as §4

pUC19 plasmid DNA = conditions: in the dark; cited from earlier work
HMGB1 protein [12] = biological target: T1, HMGB1 protein; conditions: in the dark; footnote a: taken from literature; cited from earlier work
[13] = test system: 212 bp NdeI–HpaI fragment of pSP73KB DNA; experiment: Transcription mapping of DNA adducts (T7 RNA polymerase); assay type: biochemical; conditions: in the dark; rb=0.01
Procedure: Sequence preference of DNA adducts: Transcription mapping experiments were performed to determine the DNA binding sites for Pt complexes. The experiments were carried out using a linear 212 bp DNA fragment (sequence in Figure 9 B), randomly modified by transplatin (8), cisplatin (7), 5 or 6 in the dark or by 1 and 2 photoactivated with blue light (420 nm) at rb=0.01 (rb is defined as the number of the molecules of platinum complex coordinated per nucleotide residue), for RNA synthesis by T7 RNA polymerase (Figure 9 A, lanes 8, 7, 5, 6, 1 and 2, respectively). RNA synthesis on the template modified by the platinum complexes produced fragments of defined sizes (Figure 9 A), which indicate the sites where RNA synthesis was prematurely terminated. It should be noted that RNA synthesis by T7 RNA polymerase is prematurely terminated only due to the platinum adducts on the template strand.[23] […] The ability to bind to A and C sites is consistent with the result from AMP and CMP binding experiments (Figure S18 in the Supporting Information).
Figure 9 Inhibition of RNA synthesis by T7 RNA polymerase on the NdeI–HpaI fragment of pSP73KB plasmid DNA modified by complexes 5 or 6, cisplatin (7) or transplatin (8) in the dark, or with photoactivated 1 or 2 (420 nm light). A) Autoradiogram of a polyacrylamide (6 %)/urea (8 M) sequencing gel. […]
assayed by differential pulse polarography for free, unbound platinum.[16] The amount of platinum bound to DNA was calculated by subtracting the amount of free (unbound) platinum from the total amount of platinum present in the reaction. […]
This fragment contained T7 RNA polymerase promoter (in the upper strand close to its 3'-end). […] The fragments produced in RNA synthesis on the template modified by the platinum complexes were analysed by a 6% polyacrylamide/8M urea sequencing gel.
Quantification of DNA adducts […]
Platinum associated with DNA was assessed by flameless atomic absorption […]
Quantification of DNA interstrand cross-links […]

| SMILES | IC50 (A2780 cells [1]) | Resistance factor (A2780cis cells [2]) | IC50 (A2780cis cells [2]) | also measured |
| --- | --- | --- | --- | --- |
| CC(C)[NH2+][Pt-2]([Cl])([Cl])[n+]1ccn(C)c1 | 21 ± 0.6 µM | 0.66 | 14 ± 3.5 µM |  |
| N.N.[Cl][Pt][Cl] [Complex 7, cis-[PtCl2(NH3)2]] |  |  |  | Resistance factor (A2780cis cells [3]; A2780cis vs A2780, SRB assay): 7.0; IC50 (A2780cis cells [3]; ambient light, 24 h exposure, 72 h recovery, SRB): 10.5 ± 0.3 µM; Time for binding to 5′-GMP to reach 50 % [4]: 7 to 8 h; HMGB1 protein recognition (HMGB1 protein [5]): strongly bound by HMGB1; Pt bound after 24 h (calf thymus DNA [6]): 100[36] %; IC50 (A2780 cells [7]): 0.5 µM; IC50 (A2780 cells [8]): 1.5 ± 0.3 µM; d(ApG) 1,2-intrastrand cross-links, share of all adducts (DNA): 20–25%; d(GpG) 1,2-intrastrand cross-links, share of all adducts (DNA): 60–65%; Sequence specificity ([9]; ref 30c, 37): GG, (GA)[30c], [37]; Interstrand cross-link (pSP73KB plasmid DNA): 6[32b] %; Bifunctional adducts after 24 h (calf thymus DNA [10]): 97–99[32b] %; IC50 (A2780cis cells [11]): 11 µM; Unwinding angle (pUC19 plasmid DNA): 13[25] ° |
| N.N.[Cl][Pt+2][Cl] [Complex 8, transplatin] | > 200 µM |  |  | Pt bound after 24 h (calf thymus DNA [6]): 100[36] %; HMGB1 protein recognition (HMGB1 protein [12]): no ^[a]; Sequence specificity ([9]; ref 32b): G, C[32b]; Interstrand cross-link (pSP73KB plasmid DNA): 12[32b] %; Bifunctional adducts after 24 h (calf thymus DNA [10]): 50[32b] %; Unwinding angle (pUC19 plasmid DNA): 9[25] °; Sequence specificity [13]: stop sites mainly at G and C |
| CCC(C)C[NH][Pt]([Cl])[Cl].N (stereo not drawn) [trans-[PtCl2(NH3)(2-methyl-butylamine)]] | 1.7 µM | 5.5 | 9.3 µM |  |
| Cc1cc[n+]([Pt@SP2-2]([NH3+])([Cl])[Cl])cc1 [trans-[PtCl2(NH3)(4-picoline)]] | 7 ± 1 µM | 11 | 80 ± 5 µM |  |
| COC(C)=N.N.[Cl][Pt][Cl] [trans-[PtCl2(NH3)(HN=C(OCH3)CH3)]] | 1.3 ± 0.3 µM | 5.4 | 7 ± 1.3 µM |  |
| C1CNCCN1.N.[Cl][Pt][Cl] [trans-[PtCl2(NH3)(piperazine)]] | 5 ± 1 µM | 8.8 | 44 ± 2 µM |  |
| C1CCNCC1.N.[Cl][Pt][Cl] [trans-[PtCl2(NH3)(piperidine)]] | 5 ± 0.7 µM | 4.0 | 20 ± 2 µM |  |
| CCC(C)N.N.[Cl][Pt][Cl] (stereo not drawn) [trans-[PtCl2(NH3)(sec-butylamine)]] | 2.1 µM | 7.4 | 15.5 µM |  |
